{"source": "patent US12264128B1", "about": "“Acid as an antioxidant compound” (KING FAISAL UNIVERSITY, priority 2023, dated 2025)", "experiment": "DPPH radical scavenging antioxidant test", "conditions": "517 nm; for Inhibition (radical scavenging inhibition): 0.2 mL DPPH (0.75 mM), compound 3 μM in ethanol, 30 min incubation in the dark", "method": "The antioxidant properties of the 8-((3,4-dihydroxyphenyl)diazenyl)naphthalene-1,3-disulfonic acid were studied by adding 0.2 mL DPPH (0.75 mM)) to compound 8-((3,4-dihydroxyphenyl)diazenyl)naphthalene-1,3-disulfonic acid (III) (3 μM) in ethanol. After 30 min of incubation in the dark, the absorbance was read against a blank at 517 nm. Ascorbic acid (vitamin C) was used as standard antioxidants (positive control). A blank sample was prepared by 0.2 ml of DPPH in 3 ml ethanol. A negative control sample was run using ethanol instead of the sample. The radical scavenging inhibition was calculated using the following equation: […]\nThe antioxidant activity for the synthesized compound is listed in Table 1, using Vitamin C as a reference.", "data": [{"compound": "O=C1O[C@H]([C@@H](O)CO)C(O)=C1O", "note": "[vit c, Ascorbic acid, reference compound]", "values": [{"measurement": "Inhibition (radical scavenging inhibition)", "result": 74, "unit": "%"}]}, {"compound": "O=S(=O)(O)c1cc(S(=O)(=O)O)c2c(/N=N/c3ccc(O)c(O)c3)cccc2c1", "note": "[Product III, 8-((3,4-dihydroxyphenyl)diazenyl)naphthalene-1,3-disulfonic acid]", "values": [{"measurement": "Inhibition (radical scavenging inhibition)", "result": 54, "unit": "%"}, {"measurement": "antioxidant potential compared to vitamin C (in words)", "setting": "DPPH in vitro test, vitamin C as positive control", "result": "high potential as an antioxidant compared to vitamin C"}]}]}
